Experimental data: ChEMBL document CHEMBL3301546, “MMV Malaria Box yeast growth screening”

Assays:
Format in all cases: functional
[1] = system: Saccharomyces cerevisiae; test: (§1) MMV: Growth assays were conducted using the prototrophic S. cerevisiae strain JHY222. Each MMV compound (0.1 mM) was tested in rich media containing dextrose as a carbon source (Yeast Extract, Peptone, Dextrose; YPD). The growth rate in the presence of each MMV compound was calculated as follows: (i) the first 10 OD readings were averaged and subtracted from all OD readings of the corresponding curve to set the baseline of the growth curve to zero, and (ii) the area under the curve (AUC) was then calculated as the sum of all OD readings. […] A relative growth value was calculated as follows: AUC(DRUG) - AUC(DMSO)/AUC(DMSO); where AUC(DMSO) represents growth measured in a DMSO control well that was on the same microtiter plate of the drug-treated culture.
[2] = system: Saccharomyces cerevisiae; test: as §1, with “minimal” for “rich”, “Nitrogen Base,” for “Extract, Peptone,”, “YNBD).” for “YPD).”
[3] = system: Saccharomyces cerevisiae; test: as §1, with “minimal” for “rich”, “ethanol and glycerol” for “dextrose”, “as” for “as a”, “sources” for “source”, “Nitrogen Base, Ethanol, Glycerol; YNBEG).” for “Extract, Peptone, Dextrose; YPD).”

Structure (SMILES) | Relative Growth [1] | Relative Growth [2] | Relative Growth [3]
CCCCNCC(O)(c1ccc(Cl)cc1)c1ccc(Cl)cc1 | 0.0298 | -0.2198 | -0.1782
COc1cc2c3cc1Oc1c(OC)c(OC)cc4c1C(Cc1ccc(O)c(c1)Oc1ccc(cc1)CC3N(C)CC2)N(C)CC4.Cl (centres undefined) | -0.0961 | 0.0109 | -0.1414
CCN(CC)CCNc1ccnc2cc3ccccc3cc12.O=P(O)(O)O | 0.0094 | -0.1052 | -0.0873
O=C(O)C(=O)O.Oc1ccc(Br)cc1CN1CCN(Cc2cccc(F)c2)CC1 | -0.1015 | -0.047 | -0.3839
CCN(CC)CCCNc1nc(-c2ccc(Cl)cc2)nc2ccccc12 | -0.029 | 0.0809 | -0.0397
CC(C)CNC(=O)c1c(N)n(CCc2ccccc2F)c2nc3ccccc3nc12 | 0.0072 | 0.1192 | -0.2111
COc1ccccc1N1CCN(C(CNS(=O)(=O)c2ccc(Cl)cc2)c2cccnc2)CC1 (centres undefined) | -0.173 | -0.1378 | -0.6721
COc1ccc(C(O)(CCC(C)C)C(CN2CCOCC2)c2ccc(Cl)cc2)cc1.Cl (centres undefined) | -0.0809 | -0.0398 | -0.1228
FC(F)(F)c1cccc(Nc2nc3ccccc3nc2Nc2cccc(C(F)(F)F)c2)c1 | -0.0449 | -0.0009 | -0.1177
COc1ccc(C(=O)Nc2ccc(Cl)cc2C(=O)Nc2ccncc2)cc1 | -0.2989 | -0.1015 | 0.1271
Nc1ccn([C@@H]2O[C@H](CO)[C@@H](O)[C@H]2O)c(=O)n1 [CYTIDINE] | -0.0768 | 0.1163 | -0.4063
Cc1ccc(-c2cc3c(nn2)-c2ccccc2C3=O)cc1 | -0.0004 | -0.1641 | -0.6667
Cc1ccc(CN2CCC(C(=O)Nc3ccc(-c4cc5ccccc5[nH]4)cc3)CC2)o1 | 0.0612 | -0.0113 | -0.0247
COc1ccc(CN2CCCC(C(=O)c3ccc(C(F)(F)F)cc3)C2)c(O)c1 (centres undefined) | -0.2476 | -0.4404 | -0.9168
COc1ccc(CCNC(=O)c2cc(S(=O)(=O)N3CC(C)CC(C)C3)ccc2Sc2ccc(F)cc2)cc1OC (centres undefined) | -0.1625 | -0.1001 | -0.0984
CN(C)c1ccc(-c2nc3cc(N)ccc3[nH]2)cc1 | 0.2129 | -0.0068 | 0.1829
CN(C)c1ccc(C(O)(c2ccc(N(C)C)cc2)c2ccc(N(C)C)cc2)cc1 [METHYLROSANILINE] | -0.0138 | -0.0186 | -0.4054
Cc1ccc(C)c(Cn2c(N3CCC(C(=O)NCc4cccs4)CC3)nc3ccccc32)c1 | -0.4893 | -0.0285 | -0.021
COc1ccc(-c2cc3c(SCC(=O)Nc4cc(C(F)(F)F)ccc4Cl)nccn3n2)cc1 | -0.0822 | 0.0829 | -0.1809
CCOc1cc2c(cc1OCC)C(c1cc(Cl)ccc1O)NCC2 (centres undefined) | -0.0098 | 0.0319 | -0.522
CC(C)=CCN1CCC(C(=O)Nc2ccc(-c3nc4ccccc4[nH]3)cc2)CC1 | -0.0484 | 0.0091 | 0.1138
c1ccc(CNc2nc(Nc3ccccc3)nc3ccccc23)cc1 | -0.0158 | -0.1327 | -0.0499

Structure (SMILES) | Relative Growth [1] | Relative Growth [2] | Relative Growth [3]
COc1ccccc1CNC(=O)CCn1c(=O)[nH]c2ccsc2c1=O | -0.0638 | 0.2472 | -0.0445
CC(C)(C)CC(C)(C)NCC(O)COc1ccc2c(c1)CCC2.Cl (centres undefined) | -0.08 | -0.0891 | -0.1886
COc1ccc2c(=O)cc(C(Cl)(Cl)Cl)oc2c1 | 0.0032 | 0.0555 | -0.0182
COc1ccccc1N1C(=N)SC(=Cc2ccc(OCc3ccccc3F)cc2)C1=O | 0.0323 | 0.0037 | -0.0753
Oc1ccc(C(=C(Cl)Cl)c2ccc(O)cc2)cc1 | 0.0294 | -0.227 | -0.5689
Br.Cc1ccc(C)c(-c2csc(Nc3ccc(C)c(C)c3)n2)c1 | -0.11 | -0.0757 | -0.3216
Cc1cc(NC(=O)C2c3ccccc3C(=O)N(CC(C)C)C2c2cccs2)no1 (centres undefined) | -0.03 | -0.0434 | -0.0882
Cc1cc(NCCN2CCCCC2)c2ccc3ccccc3c2n1 | 0.101 | 0.1405 | 0.1901
OC(CNC1CCCCC1)Cn1c2ccccc2c2ccccc21 (centres undefined) | -0.0297 | 0.0533 | 0.1093
CCOc1ccc(Nc2c3ccccc3nc3ccccc23)cc1.Cl | -0.0047 | 0.0198 | 0.0301
Cc1[nH]c(-c2ccc(F)cc2)cc1C(=O)NC1CCN(Cc2ccccc2)CC1 | 0.0962 | 0.023 | 0.2181
O=C(NCc1ccco1)C1CCN(S(=O)(=O)c2ccc(Cl)cc2)CC1 | -0.0768 | -0.224 | -0.0245
Cc1nc2ccccc2c(O)c1CC=C(Cl)Cl | -0.1226 | -0.0687 | -1.0138
O=C(O)C1Cc2c([nH]c3ccccc23)C(c2ccc(Cl)cc2Cl)N1 (centres undefined) | -0.035 | -0.0148 | 0.1085
CCCCCCOC(=O)C1=C(C)NC(=O)NC1c1ccccc1F (centres undefined) | -0.0098 | 0.2134 | -0.2346
COc1ccc(CNC2CCN(c3ccc(NC(=O)c4cccc(Cl)c4)cc3)CC2)cc1OC | -0.0405 | 0.0343 | -0.0282
CCOc1ccccc1NC(=O)CN1CCN(C(=O)c2ccco2)CC1 | -0.0315 | 0.1567 | -0.0386
CCCCCn1c(=N)n(CC(O)COc2cccc(C)c2)c2ccccc21.Cl (centres undefined) | 0.0144 | -0.2633 | -0.7976
Oc1ccc(Br)cc1CN1CCN(Cc2ccc(Cl)cc2)CC1 | 0.004 | -0.144 | -0.4008
O=C(Cc1ccccc1)NC(c1ccc(Cl)cc1)c1c(O)ccc2ccccc12 (centres undefined) | 0.0198 | -0.1217 | 0.0388
CC1CC(C)CN(C(=O)c2ccc(Cl)cc2Cl)C1 (centres undefined) | 0.0159 | -0.0098 | -0.0083
